Data published in the CheMixHub viscosity set.

Assay: xn = mol fraction of the nth substance listed

NC=O + CCCO
Details | viscosity [mPa·s]
293.15 K, 101 kPa, x1 = 0.0557 | 2.16
293.15 K, 101 kPa, x1 = 0.1172 | 2.201
293.15 K, 101 kPa, x1 = 0.1854 | 2.285
293.15 K, 101 kPa, x1 = 0.2615 | 2.419
298.15 K, 100 kPa, x1 = 0.0744 | 1.97
298.15 K, 100 kPa, x1 = 0.116 | 1.98
298.15 K, 100 kPa, x1 = 0.1885 | 2.07
298.15 K, 100 kPa, x1 = 0.294 | 2.27
298.15 K, 100 kPa, x1 = 0.3225 | 2.33
298.15 K, 100 kPa, x1 = 0.331 | 2.4
298.15 K, 100 kPa, x1 = 0.4121 | 2.54
298.15 K, 100 kPa, x1 = 0.4562 | 2.61
298.15 K, 100 kPa, x1 = 0.4974 | 2.73
298.15 K, 100 kPa, x1 = 0.5225 | 2.76
298.15 K, 100 kPa, x1 = 0.6129 | 2.96
298.15 K, 100 kPa, x1 = 0.6877 | 3.09
298.15 K, 100 kPa, x1 = 0.7379 | 3.17
298.15 K, 100 kPa, x1 = 0.8232 | 3.28
298.15 K, 100 kPa, x1 = 0.8536 | 3.31
298.15 K, 100 kPa, x1 = 0.9169 | 3.36
298.15 K, 100 kPa, x1 = 0.9506 | 3.34
298.15 K, 101 kPa, x1 = 0.0557 | 1.938
298.15 K, 101 kPa, x1 = 0.1172 | 1.976
298.15 K, 101 kPa, x1 = 0.1854 | 2.052
298.15 K, 101 kPa, x1 = 0.2615 | 2.181
303.15 K, 101 kPa, x1 = 0.0557 | 1.742
303.15 K, 101 kPa, x1 = 0.1172 | 1.775
303.15 K, 101 kPa, x1 = 0.1854 | 1.846
303.15 K, 101 kPa, x1 = 0.2615 | 1.962
303.15 K, 101 kPa, x2 = 0.0999 | 2.877
303.15 K, 101 kPa, x2 = 0.2004 | 2.813
303.15 K, 101 kPa, x2 = 0.3002 | 2.706
303.15 K, 101 kPa, x2 = 0.4 | 2.554
303.15 K, 101 kPa, x2 = 0.5 | 2.378
303.15 K, 101 kPa, x2 = 0.6 | 2.191
303.15 K, 101 kPa, x2 = 0.6998 | 2.022
303.15 K, 101 kPa, x2 = 0.8 | 1.87
303.15 K, 101 kPa, x2 = 0.9001 | 1.756
303.15 K, 101.3 kPa, x1 = 0.0961 | 1.6
303.15 K, 101.3 kPa, x1 = 0.1755 | 1.7
303.15 K, 101.3 kPa, x1 = 0.2494 | 1.8
303.15 K, 101.3 kPa, x1 = 0.3192 | 1.9
303.15 K, 101.3 kPa, x1 = 0.3902 | 2
303.15 K, 101.3 kPa, x1 = 0.4629 | 2.1
303.15 K, 101.3 kPa, x1 = 0.5342 | 2.2
303.15 K, 101.3 kPa, x1 = 0.614 | 2.4
303.15 K, 101.3 kPa, x1 = 0.6891 | 2.6
303.15 K, 101.3 kPa, x1 = 0.7654 | 2.7
303.15 K, 101.3 kPa, x1 = 0.8114 | 2.7
303.15 K, 101.3 kPa, x1 = 0.921 | 2.8
308.15 K, 101 kPa, x1 = 0.0557 | 1.584
308.15 K, 101 kPa, x1 = 0.1172 | 1.618
308.15 K, 101 kPa, x1 = 0.1854 | 1.678
308.15 K, 101 kPa, x1 = 0.2615 | 1.798
308.15 K, 101 kPa, x2 = 0.0999 | 2.554
308.15 K, 101 kPa, x2 = 0.2004 | 2.492
308.15 K, 101 kPa, x2 = 0.3002 | 2.393
308.15 K, 101 kPa, x2 = 0.4 | 2.261
308.15 K, 101 kPa, x2 = 0.5 | 2.11
308.15 K, 101 kPa, x2 = 0.6 | 1.949
308.15 K, 101 kPa, x2 = 0.6998 | 1.802
308.15 K, 101 kPa, x2 = 0.8 | 1.669
308.15 K, 101 kPa, x2 = 0.9001 | 1.569
308.15 K, 101.3 kPa, x1 = 0.0961 | 1.4
308.15 K, 101.3 kPa, x1 = 0.1755 | 1.5
308.15 K, 101.3 kPa, x1 = 0.2494 | 1.5
308.15 K, 101.3 kPa, x1 = 0.3192 | 1.6
308.15 K, 101.3 kPa, x1 = 0.3902 | 1.7
308.15 K, 101.3 kPa, x1 = 0.4629 | 1.8
308.15 K, 101.3 kPa, x1 = 0.5342 | 1.9
308.15 K, 101.3 kPa, x1 = 0.614 | 2.1
308.15 K, 101.3 kPa, x1 = 0.6891 | 2.2
308.15 K, 101.3 kPa, x1 = 0.7654 | 2.3
308.15 K, 101.3 kPa, x1 = 0.8114 | 2.4
308.15 K, 101.3 kPa, x1 = 0.921 | 2.5
313.15 K, 101 kPa, x1 = 0.0557 | 1.349
313.15 K, 101 kPa, x1 = 0.1172 | 1.388
313.15 K, 101 kPa, x1 = 0.1854 | 1.457
313.15 K, 101 kPa, x1 = 0.2615 | 1.595
313.15 K, 101 kPa, x2 = 0.0999 | 2.285
313.15 K, 101 kPa, x2 = 0.2004 | 2.223
313.15 K, 101 kPa, x2 = 0.3002 | 2.133
313.15 K, 101 kPa, x2 = 0.4 | 2.015
313.15 K, 101 kPa, x2 = 0.5 | 1.881
313.15 K, 101 kPa, x2 = 0.6 | 1.74
313.15 K, 101 kPa, x2 = 0.6998 | 1.61
313.15 K, 101 kPa, x2 = 0.8 | 1.494
313.15 K, 101 kPa, x2 = 0.9001 | 1.407
313.15 K, 101.3 kPa, x1 = 0.0961 | 1.3
313.15 K, 101.3 kPa, x1 = 0.1755 | 1.3
313.15 K, 101.3 kPa, x1 = 0.2494 | 1.4
313.15 K, 101.3 kPa, x1 = 0.3192 | 1.5
313.15 K, 101.3 kPa, x1 = 0.3902 | 1.6
313.15 K, 101.3 kPa, x1 = 0.4629 | 1.7
313.15 K, 101.3 kPa, x1 = 0.5342 | 1.7
313.15 K, 101.3 kPa, x1 = 0.614 | 1.9
313.15 K, 101.3 kPa, x1 = 0.6891 | 2
313.15 K, 101.3 kPa, x1 = 0.7654 | 2.1
313.15 K, 101.3 kPa, x1 = 0.8114 | 2.1
313.15 K, 101.3 kPa, x1 = 0.921 | 2.2
318.15 K, 101 kPa, x1 = 0.0557 | 1.219
318.15 K, 101 kPa, x1 = 0.1172 | 1.263
318.15 K, 101 kPa, x1 = 0.1854 | 1.333
318.15 K, 101 kPa, x2 = 0.0999 | 2.056
318.15 K, 101 kPa, x2 = 0.2004 | 1.995
318.15 K, 101 kPa, x2 = 0.3002 | 1.912
318.15 K, 101 kPa, x2 = 0.4 | 1.804
318.15 K, 101 kPa, x2 = 0.5 | 1.685
318.15 K, 101 kPa, x2 = 0.6 | 1.561
318.15 K, 101 kPa, x2 = 0.6998 | 1.447
318.15 K, 101 kPa, x2 = 0.8 | 1.344
318.15 K, 101 kPa, x2 = 0.9001 | 1.266
318.15 K, 101.3 kPa, x1 = 0.0961 | 1.1
318.15 K, 101.3 kPa, x1 = 0.1755 | 1.1
318.15 K, 101.3 kPa, x1 = 0.2494 | 1.2
318.15 K, 101.3 kPa, x1 = 0.3192 | 1.3
318.15 K, 101.3 kPa, x1 = 0.3902 | 1.4
318.15 K, 101.3 kPa, x1 = 0.4629 | 1.5
318.15 K, 101.3 kPa, x1 = 0.5342 | 1.5
318.15 K, 101.3 kPa, x1 = 0.614 | 1.6
318.15 K, 101.3 kPa, x1 = 0.6891 | 1.7
318.15 K, 101.3 kPa, x1 = 0.7654 | 1.8
318.15 K, 101.3 kPa, x1 = 0.8114 | 1.9
318.15 K, 101.3 kPa, x1 = 0.921 | 1.9
323.15 K, 101 kPa, x2 = 0.0999 | 1.86
323.15 K, 101 kPa, x2 = 0.2004 | 1.801
323.15 K, 101 kPa, x2 = 0.3002 | 1.722
323.15 K, 101 kPa, x2 = 0.4 | 1.624
323.15 K, 101 kPa, x2 = 0.5 | 1.517
323.15 K, 101 kPa, x2 = 0.6 | 1.405
323.15 K, 101 kPa, x2 = 0.6998 | 1.304
323.15 K, 101 kPa, x2 = 0.8 | 1.212
323.15 K, 101 kPa, x2 = 0.9001 | 1.141
323.15 K, 101.3 kPa, x1 = 0.0961 | 0.92
323.15 K, 101.3 kPa, x1 = 0.1755 | 0.95
323.15 K, 101.3 kPa, x1 = 0.2494 | 1
323.15 K, 101.3 kPa, x1 = 0.3192 | 1.05
323.15 K, 101.3 kPa, x1 = 0.3902 | 1.1
323.15 K, 101.3 kPa, x1 = 0.4629 | 1.2
323.15 K, 101.3 kPa, x1 = 0.5342 | 1.3
323.15 K, 101.3 kPa, x1 = 0.614 | 1.3
323.15 K, 101.3 kPa, x1 = 0.6891 | 1.4
323.15 K, 101.3 kPa, x1 = 0.7654 | 1.5
323.15 K, 101.3 kPa, x1 = 0.8114 | 1.5
323.15 K, 101.3 kPa, x1 = 0.921 | 1.6
